Laboratory results from the supplement of paper PMC11208160.

assay: recombinant UMI read abundance after kanamycin selection (control-corrected) (log10(CPM+1)); higher = more efficient recombination; extreme values may be limits of the assay; sequences stand for … in AGTGCAGAGAAAATCGGCCAGTTTTCTCTGCCTGCAGTCCGCATGCCGTGGGACCCCTTGGGTTCTAACCTGTTGCCTAGATTTATGCAGCGGACTGCCTTTCTCCCAAAGTGATAAACCGG…AGGTTGGTTTCACT; site = the 11-nt donor
Procedure, shortened: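 Sequenced counts of recombinant UMIs were turned into CPM, averaged across replicates and scaled with control-derived factors. The reported figure is log10(CPM+1). Those UMIs, each 12 nt long, tagged donor and donor-binding-loop pairs on a plasmid with a promoterless kanamycin gene, screened as a pool in Escherichia coli with IPTG (0.07 mM) plus kanamycin or without selection.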
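Note: IS621 bridge recombinase in Escherichia coli cells against a fixed T5 target plasmid.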

First: GTATGCACATGGACCGGTTTTCCCGGTAATCCGTATTTGCA (site GTATGCACTTG)
Second: GTATGCACATGGACCGGTTTTCCCGGTAATCCGTATTTGCA (site GTATGCACTTT)
The “recombinant UMI read abundance (log10)” value of the first is higher: 2.67 for the first, 0.427 for the second.

“GTATGCACATGGACCGGTTTTCCCGGTAATCCGTATTTGTA (site ATATGCACTTA)” and “GTATGCACATGGACCGGTTTTCCCGGTAATCCGTATTTGTA (site CTATGCACTTA)” are within 0.2 log units of each other in “recombinant UMI read abundance (log10)” value: 0.664 for the first, 0.712 for the second.

Compared with “GTATGCACATGGACCGGTTTTCCCGGTAATCCGTATTTGTA (site GAATGCACTTA)”, “GTATGCACATGGACCGGTTTTCCCGGTAATCCGTATTTGTA (site GCATGCACTTA)” is higher in “recombinant UMI read abundance (log10)” value: 0.0229 for the first, 0.671 for the second.

“GTATGCACATGGACCGGTTTTCCCGGTAATCCGTATTTGTA (site GGATGCACTTA)” and “GTATGCACATGGACCGGTTTTCCCGGTAATCCGTATTTGTA (site GTAAGCACTTA)” are within 0.2 log units of each other in “recombinant UMI read abundance (log10)” value: 0.58 for the first, 0.776 for the second.

Compared with “GTATGCACATGGACCGGTTTTCCCGGTAATCCGTATTTGTA (site GTACGCACTTA)”, “GTATGCACATGGACCGGTTTTCCCGGTAATCCGTATTTGTA (site GTAGGCACTTA)” is lower in “recombinant UMI read abundance (log10)” value: 1.72 for the first, 0.461 for the second.

First: GTATGCACATGGACCGGTTTTCCCGGTAATCCGTATTTGTA (site GTATACACTTA)
Second: GTATGCACATGGACCGGTTTTCCCGGTAATCCGTATTTGTA (site GTATCCACTTA)
The “recombinant UMI read abundance (log10)” value of the first is higher: 2.07 for the first, 0.28 for the second.

First: GTATGCACATGGACCGGTTTTCCCGGTAATCCGTATTTGTA (site GTATGAACTTA)
Second: GTATGCACATGGACCGGTTTTCCCGGTAATCCGTATTTGTA (site GTATGCACTAA)
The “recombinant UMI read abundance (log10)” value of the first is higher: 0.66 for the first, 0.126 for the second.

Compared with “GTATGCACATGGACCGGTTTTCCCGGTAATCCGTATTTGTA (site GTATGCACTCA)”, “GTATGCACATGGACCGGTTTTCCCGGTAATCCGTATTTGTA (site GTATGCACTGA)” is higher in “recombinant UMI read abundance (log10)” value: 0.0356 for the first, 1.72 for the second.

First: GTATGCACATGGACCGGTTTTCCCGGTAATCCGTATTTGTA (site GTATGCACTTA)
Second: GTATGCACATGGACCGGTTTTCCCGGTAATCCGTATTTGTA (site GTATGCACTTC)
The “recombinant UMI read abundance (log10)” value of the first is higher: 2.07 for the first, 0.0256 for the second.

Compared with “GTATGCACATGGACCGGTTTTCCCGGTAATCCGTATTTGTA (site GTATGCACTTG)”, “GTATGCACATGGACCGGTTTTCCCGGTAATCCGTATTTGTA (site GTATGCACTTT)” is lower in “recombinant UMI read abundance (log10)” value: 1.71 for the first, 0.44 for the second.

Compared with “GTATGCACATGGACCGGTTTTCCCGGTAATCCGTATTTGTA (site GTATGCCCTTA)”, “GTATGCACATGGACCGGTTTTCCCGGTAATCCGTATTTGTA (site GTATGCGCTTA)” is higher in “recombinant UMI read abundance (log10)” value: 0.0248 for the first, 0.376 for the second.

First: GTATGCACATGGACCGGTTTTCCCGGTAATCCGTATTTGTA (site GTATGCTCTTA)
Second: GTATGCACATGGACCGGTTTTCCCGGTAATCCGTATTTGTA (site GTATGGACTTA)
The “recombinant UMI read abundance (log10)” value of the first is higher: 1.19 for the first, 0.0258 for the second.

First: GTATGCACATGGACCGGTTTTCCCGGTAATCCGTATTTGTA (site GTATGTACTTA)
Second: GTATGCACATGGACCGGTTTTCCCGGTAATCCGTATTTGTA (site GTATTCACTTA)
The “recombinant UMI read abundance (log10)” value of the first is lower: 0.274 for the first, 1.3 for the second.

First: GTATGCACATGGACCGGTTTTCCCGGTAATCCGTATTTGTA (site GTCTGCACTTA)
Second: GTATGCACATGGACCGGTTTTCCCGGTAATCCGTATTTGTA (site GTGTGCACTTA)
The “recombinant UMI read abundance (log10)” value of the first is lower: 0.0377 for the first, 0.384 for the second.

“GTATGCACATGGACCGGTTTTCCCGGTAATCCGTATTTGTA (site GTTTGCACTTA)” and “GTATGCACATGGACCGGTTTTCCCGGTAATCCGTATTTGTA (site TTATGCACTTA)” are within 0.2 log units of each other in “recombinant UMI read abundance (log10)” value: 0 for the first, 0.185 for the second.

“GTATGTACATGGACCGGTTTTCCCGGTAATCCGTATTTGTA (site GTATGAACTTA)” and “GTATGTACATGGACCGGTTTTCCCGGTAATCCGTATTTGTA (site GTATGCACTTA)” are within 0.2 log units of each other in “recombinant UMI read abundance (log10)” value: 1.74 for the first, 1.61 for the second.

Going from “GTATGTACATGGACCGGTTTTCCCGGTAATCCGTATTTGTA (site GTATGGACTTA)” to “GTATGTACATGGACCGGTTTTCCCGGTAATCCGTATTTGTA (site GTATGTACTTA)”, the “recombinant UMI read abundance (log10)” value rises from 0.499 to 2.09.

First: GTATGTCCATGGACCGGTTTTCCCGGTAATCCGTATTTGAG (site GTATGTCCTCT)
Second: GTATTAACATGGACCGGTTTTCCCGGTAATCCGTATTTGTG (site GTATTAACTCA)
The “recombinant UMI read abundance (log10)” value of the first is lower: 0.428 for the first, 2.02 for the second.

“GTCACGCCATGGACCGGTTTTCCCGGTAATCCGTATTTGTA (site GACACGCCTTA)” and “GTCACGCCATGGACCGGTTTTCCCGGTAATCCGTATTTGTA (site GCCACGCCTTA)” are within 0.2 log units of each other in “recombinant UMI read abundance (log10)” value: 0.00466 for the first, 0 for the second.

Compared with “GTCACGCCATGGACCGGTTTTCCCGGTAATCCGTATTTGTA (site GGCACGCCTTA)”, “GTCACGCCATGGACCGGTTTTCCCGGTAATCCGTATTTGTA (site GTCACGCCTTA)” is higher in “recombinant UMI read abundance (log10)” value: 0.00905 for the first, 0.476 for the second.

Compared with “GTCACGGCATGGACCGGTTTTCCCGGTAATCCGTATTTGAA (site GTCACGGCTTT)”, “GTCACGTCATGGACCGGTTTTCCCGGTAATCCGTATTTGCG (site GTCACGTCTCG)” is higher in “recombinant UMI read abundance (log10)” value: 1.2 for the first, 2.07 for the second.

Compared with “GTCAGGACATGGACCGGTTTTCCCGGTAATCCGTATTTGTC (site GTCAGGACTGA)”, “GTCATGGCATGGACCGGTTTTCCCGGTAATCCGTATTTGAA (site GTCATGGCTTT)” is lower in “recombinant UMI read abundance (log10)” value: 2.38 for the first, 1.99 for the second.

“GTCCCATCATGGACCGGTTTTCCCGGTAATCCGTATTTGCG (site GTCCCATCTCG)” and “GTCCCCACATGGACCGGTTTTCCCGGTAATCCGTATTTGTA (site GTCCCCACTTA)” are within 0.2 log units of each other in “recombinant UMI read abundance (log10)” value: 1.31 for the first, 1.14 for the second.

“GTCCGACCATGGACCGGTTTTCCCGGTAATCCGTATTTGCA (site GTCCGACCTTG)” and “GTCCGAGCATGGACCGGTTTTCCCGGTAATCCGTATTTGCA (site GTACGAGCTTG)” are the same in “recombinant UMI read abundance (log10)” value: 0 for the first, 0 for the second.

Compared with “GTCCGAGCATGGACCGGTTTTCCCGGTAATCCGTATTTGCA (site GTCCGAGCTTG)”, “GTCCGAGCATGGACCGGTTTTCCCGGTAATCCGTATTTGCA (site GTGCGAGCTTG)” is lower in “recombinant UMI read abundance (log10)” value: 1.59 for the first, 0.297 for the second.

“GTCCGAGCATGGACCGGTTTTCCCGGTAATCCGTATTTGCA (site GTTCGAGCTTG)” and “GTCCTGCCATGGACCGGTTTTCCCGGTAATCCGTATTTGGC (site GTCCTGCCTGC)” are the same in “recombinant UMI read abundance (log10)” value: 0 for the first, 0 for the second.

First: GTCGAATCATGGACCGGTTTTCCCGGTAATCCGTATTTGGT (site GTCGAATCTAC)
Second: GTCGCCCCATGGACCGGTTTTCCCGGTAATCCGTATTTGGC (site GTCGCCCCTGC)
The “recombinant UMI read abundance (log10)” value of the first is higher: 2.07 for the first, 0 for the second.

First: GTCGCGTCATGGACCGGTTTTCCCGGTAATCCGTATTTGGA (site GTCGCGTCTTC)
Second: GTCGGCCCATGGACCGGTTTTCCCGGTAATCCGTATTTGTG (site GTCGGCCCTCA)
The “recombinant UMI read abundance (log10)” value of the first is higher: 1.24 for the first, 0.00361 for the second.

First: GTCGGGGCATGGACCGGTTTTCCCGGTAATCCGTATTTGTT (site GTCGGGGCTAA)
Second: GTCGTATCATGGACCGGTTTTCCCGGTAATCCGTATTTGTC (site GTCGTATCTGA)
The “recombinant UMI read abundance (log10)” value of the first is lower: 0.949 for the first, 2.7 for the second.

Going from “GTCTAACCATGGACCGGTTTTCCCGGTAATCCGTATTTGTC (site GTCTAACCTGA)” to “GTCTACACATGGACCGGTTTTCCCGGTAATCCGTATTTGAG (site GTCTACACTCT)”, the “recombinant UMI read abundance (log10)” value rises from 0 to 0.832.

“GTCTACACATGGACCGGTTTTCCCGGTAATCCGTATTTGCT (site ATCTACACTAG)” and “GTCTACACATGGACCGGTTTTCCCGGTAATCCGTATTTGCT (site CTCTACACTAG)” are within 0.2 log units of each other in “recombinant UMI read abundance (log10)” value: 1.33 for the first, 1.44 for the second.

Compared with “GTCTACACATGGACCGGTTTTCCCGGTAATCCGTATTTGCT (site GTCTACACTAG)”, “GTCTACACATGGACCGGTTTTCCCGGTAATCCGTATTTGCT (site TTCTACACTAG)” is lower in “recombinant UMI read abundance (log10)” value: 2.05 for the first, 1.44 for the second.

First: GTCTAGACATGGACCGGTTTTCCCGGTAATCCGTATTTGCA (site GTCTAGACTTG)
Second: GTCTGCCCATGGACCGGTTTTCCCGGTAATCCGTATTTGCG (site GTCTGCCCTCG)
The “recombinant UMI read abundance (log10)” value of the first is higher: 2.13 for the first, 0.0315 for the second.

Going from “GTCTTCCCATGGACCGGTTTTCCCGGTAATCCGTATTTGCA (site GTCTTCCCTTG)” to “GTGAAGACATGGACCGGTTTTCCCGGTAATCCGTATTTGCA (site AGGAAGACTTG)”, the “recombinant UMI read abundance (log10)” value rises from 0 to 1.26.

“GTGAAGACATGGACCGGTTTTCCCGGTAATCCGTATTTGCA (site GTGAAGACTTG)” and “GTGACAACATGGACCGGTTTTCCCGGTAATCCGTATTTGAC (site GTGACAACTGT)” are within 0.2 log units of each other in “recombinant UMI read abundance (log10)” value: 2.72 for the first, 2.91 for the second.

Going from “GTGACACCATGGACCGGTTTTCCCGGTAATCCGTATTTGTT (site GTGACACCTAA)” to “GTGACCCCATGGACCGGTTTTCCCGGTAATCCGTATTTGCC (site GTGACCCCTGG)”, the “recombinant UMI read abundance (log10)” value rises from 0.00775 to 1.83.

Compared with “GTGCAAACATGGACCGGTTTTCCCGGTAATCCGTATTTGTG (site GTGCAAACTCA)”, “GTGCATCCATGGACCGGTTTTCCCGGTAATCCGTATTTGCA (site GTGCATCCTTG)” is lower in “recombinant UMI read abundance (log10)” value: 2.04 for the first, 1.03 for the second.

For “GTGCATGCATGGACCGGTTTTCCCGGTAATCCGTATTTGGA (site GTGCATGCTAC)”, the “recombinant UMI read abundance (log10)” value was 0.00401.
